Measurements as given in the supplement of paper PMC10307832.

Experiments:
Test in all cases: relative viability (nuclei count vs DMSO), 5 days (fraction); higher = more cells survive
201T = tested on: 201T
Method in brief: (§1)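 After 5 days of treatment, lung cancer cells in 1536-well plates were fixed and stained in a single step (final 0.05% Triton X-100, 1% formaldehyde, 1 ug/ml Hoechst) and their nuclei counted on 4× images. Treatment had been applied by pin tool the day after seeding as one drug alone or as a fixed anchor-drug dose with five library-drug doses (not always all listed) in √10 steps. Relative viability is the nuclei count of treated wells divided by that of vehicle wells, and values are medians of duplicate plates.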

COR-L 105 = tested on: COR-L 105
Method in brief: as §1

ChaGo-K-1 = tested on: ChaGo-K-1
Method in brief: as §1

EPLC-272H = tested on: EPLC-272H
Method in brief: as §1

H3255 = tested on: H3255
Method in brief: as §1

HCC-78 = tested on: HCC-78
Method in brief: as §1

HCC-827 = tested on: HCC-827
Method in brief: as §1

LC-2-ad = tested on: LC-2-ad
Method in brief: as §1

LCLC-97TM1 = tested on: LCLC-97TM1
Method in brief: as §1

NCI-H1666 = tested on: NCI-H1666
Method in brief: as §1

NCI-H1915 = tested on: NCI-H1915
Method in brief: as §1

NCI-H2087 = tested on: NCI-H2087
Method in brief: as §1

NCI-H2126 = tested on: NCI-H2126
Method in brief: as §1

NCI-H2347 = tested on: NCI-H2347
Method in brief: as §1

NCI-H23 = tested on: NCI-H23
Method in brief: as §1

NCI-H2405 = tested on: NCI-H2405
Method in brief: as §1

NCI-H322M = tested on: NCI-H322M
Method in brief: as §1

NCI-H520 = tested on: NCI-H520
Method in brief: as §1

NCI-H647 = tested on: NCI-H647
Method in brief: as §1

NCI-H650 = tested on: NCI-H650
Method in brief: as §1

NCI-H661 = tested on: NCI-H661
Method in brief: as §1

PC-14 = tested on: PC-14
Method in brief: as §1

RERF-LC-KJ = tested on: RERF-LC-KJ
Method in brief: as §1

Q: Which relative viability (201T; first compound 0.04 µM) does the source give for `O=C(O)c1ccc(-c2c[nH]c3ncc(-c4ccccc4)cc23)cc1C1CCCC1` + Cc1cc(Nc2cc(N3CCN(C)CC3)nc(Sc3ccc(NC(=O)C4CC4)cc3)n2)n[nH]1 [Tozasertib] (partner 0.1 µM) here?
A: 0.943

Q: What about the relative viability (201T; first compound 0.1265 µM) of the same molecule?
A: 0.973

Q: What about the relative viability (201T; first compound 0.4 µM) of the same molecule?
A: 0.893

Q: And the relative viability (201T; first compound 1.265 µM)?
A: 0.771

Q: And the relative viability (COR-L 105; first compound 0.04 µM)?
A: 0.304

Q: What about the relative viability (COR-L 105; first compound 0.1265 µM) of the same molecule?
A: 0.36

Q: And the relative viability (COR-L 105; first compound 0.4 µM)?
A: 0.357

Q: And the relative viability (COR-L 105; first compound 1.265 µM)?
A: 0.36

Q: And the relative viability (ChaGo-K-1; first compound 0.04 µM)?
A: 0.213

Q: And the relative viability (ChaGo-K-1; first compound 0.1265 µM)?
A: 0.225

Q: And the relative viability (ChaGo-K-1; first compound 0.4 µM)?
A: 0.242

Q: What about the relative viability (ChaGo-K-1; first compound 1.265 µM) of the same molecule?
A: 0.215

Q: And the relative viability (EPLC-272H; first compound 0.04 µM)?
A: 0.295

Q: What about the relative viability (EPLC-272H; first compound 0.1265 µM) of the same molecule?
A: 0.313

Q: What about the relative viability (EPLC-272H; first compound 0.4 µM) of the same molecule?
A: 0.274

Q: What about the relative viability (EPLC-272H; first compound 1.265 µM) of the same molecule?
A: 0.0995

Q: And the relative viability (H3255; first compound 0.04 µM)?
A: 0.524

Q: What about the relative viability (H3255; first compound 0.1265 µM) of the same molecule?
A: 0.693

Q: And the relative viability (H3255; first compound 0.4 µM)?
A: 0.618

Q: What about the relative viability (H3255; first compound 1.265 µM) of the same molecule?
A: 0.604

Q: What about the relative viability (HCC-78; first compound 0.1265 µM) of the same molecule?
A: 0.468

Q: What about the relative viability (HCC-78; first compound 0.4 µM) of the same molecule?
A: 0.405

Q: And the relative viability (HCC-78; first compound 1.265 µM)?
A: 0.345

Q: And the relative viability (HCC-827; first compound 0.04 µM)?
A: 0.459

Q: And the relative viability (HCC-827; first compound 0.1265 µM)?
A: 0.475

Q: What about the relative viability (HCC-827; first compound 0.4 µM) of the same molecule?
A: 0.404

Q: And the relative viability (HCC-827; first compound 1.265 µM)?
A: 0.328

Q: And the relative viability (LC-2-ad; first compound 0.04 µM)?
A: 0.482

Q: What about the relative viability (LC-2-ad; first compound 0.1265 µM) of the same molecule?
A: 0.407

Q: What about the relative viability (LC-2-ad; first compound 0.4 µM) of the same molecule?
A: 0.399

Q: What about the relative viability (LC-2-ad; first compound 1.265 µM) of the same molecule?
A: 0.402

Q: And the relative viability (LCLC-97TM1; first compound 0.04 µM)?
A: 0.338

Q: And the relative viability (LCLC-97TM1; first compound 0.1265 µM)?
A: 0.315

Q: And the relative viability (LCLC-97TM1; first compound 0.4 µM)?
A: 0.243

Q: What about the relative viability (LCLC-97TM1; first compound 1.265 µM) of the same molecule?
A: 0.188

Q: And the relative viability (NCI-H1666; first compound 0.04 µM)?
A: 0.627

Q: And the relative viability (NCI-H1666; first compound 0.1265 µM)?
A: 0.587

Q: And the relative viability (NCI-H1666; first compound 0.4 µM)?
A: 0.546

Q: And the relative viability (NCI-H1666; first compound 1.265 µM)?
A: 0.419

Q: What about the relative viability (NCI-H1915; first compound 0.04 µM) of the same molecule?
A: 0.445

Q: What about the relative viability (NCI-H1915; first compound 0.1265 µM) of the same molecule?
A: 0.427

Q: And the relative viability (NCI-H1915; first compound 0.4 µM)?
A: 0.364

Q: And the relative viability (NCI-H1915; first compound 1.265 µM)?
A: 0.275

Q: What about the relative viability (NCI-H2087; first compound 0.04 µM) of the same molecule?
A: 0.248

Q: What about the relative viability (NCI-H2087; first compound 0.1265 µM) of the same molecule?
A: 0.29

Q: What about the relative viability (NCI-H2087; first compound 0.4 µM) of the same molecule?
A: 0.227

Q: And the relative viability (NCI-H2087; first compound 1.265 µM)?
A: 0.186

Q: And the relative viability (NCI-H2126; first compound 0.04 µM)?
A: 0.84

Q: And the relative viability (NCI-H2126; first compound 0.1265 µM)?
A: 0.833

Q: And the relative viability (NCI-H2126; first compound 0.4 µM)?
A: 0.868

Q: What about the relative viability (NCI-H2126; first compound 1.265 µM) of the same molecule?
A: 0.644

Q: And the relative viability (NCI-H2347; first compound 0.04 µM)?
A: 0.606

Q: And the relative viability (NCI-H2347; first compound 0.1265 µM)?
A: 0.643

Q: What about the relative viability (NCI-H2347; first compound 0.4 µM) of the same molecule?
A: 0.522

Q: What about the relative viability (NCI-H2347; first compound 1.265 µM) of the same molecule?
A: 0.5

Q: What about the relative viability (NCI-H23; first compound 0.04 µM) of the same molecule?
A: 0.355

Q: And the relative viability (NCI-H23; first compound 0.1265 µM)?
A: 0.369

Q: And the relative viability (NCI-H23; first compound 0.4 µM)?
A: 0.364

Q: And the relative viability (NCI-H23; first compound 1.265 µM)?
A: 0.353

Q: What about the relative viability (NCI-H2405; first compound 0.04 µM) of the same molecule?
A: 0.725

Q: What about the relative viability (NCI-H2405; first compound 0.1265 µM) of the same molecule?
A: 0.806

Q: And the relative viability (NCI-H2405; first compound 0.4 µM)?
A: 0.648

Q: What about the relative viability (NCI-H2405; first compound 1.265 µM) of the same molecule?
A: 0.583

Q: What about the relative viability (NCI-H322M; first compound 0.04 µM) of the same molecule?
A: 0.472

Q: What about the relative viability (NCI-H322M; first compound 0.1265 µM) of the same molecule?
A: 0.521

Q: And the relative viability (NCI-H322M; first compound 0.4 µM)?
A: 0.452

Q: What about the relative viability (NCI-H322M; first compound 1.265 µM) of the same molecule?
A: 0.437

Q: And the relative viability (NCI-H520; first compound 0.04 µM)?
A: 0.504

Q: What about the relative viability (NCI-H520; first compound 0.1265 µM) of the same molecule?
A: 0.408

Q: And the relative viability (NCI-H520; first compound 0.4 µM)?
A: 0.384

Q: What about the relative viability (NCI-H520; first compound 1.265 µM) of the same molecule?
A: 0.483

Q: What about the relative viability (NCI-H647; first compound 0.04 µM) of the same molecule?
A: 0.223

Q: What about the relative viability (NCI-H647; first compound 0.1265 µM) of the same molecule?
A: 0.381

Q: What about the relative viability (NCI-H647; first compound 0.4 µM) of the same molecule?
A: 0.337

Q: And the relative viability (NCI-H647; first compound 1.265 µM)?
A: 0.22

Q: And the relative viability (NCI-H650; first compound 0.04 µM)?
A: 0.706

Q: And the relative viability (NCI-H650; first compound 0.1265 µM)?
A: 0.691

Q: And the relative viability (NCI-H650; first compound 0.4 µM)?
A: 0.641

Q: And the relative viability (NCI-H650; first compound 1.265 µM)?
A: 0.351

Q: And the relative viability (NCI-H661; first compound 0.04 µM)?
A: 0.367

Q: What about the relative viability (NCI-H661; first compound 0.1265 µM) of the same molecule?
A: 0.36

Q: And the relative viability (NCI-H661; first compound 0.4 µM)?
A: 0.353

Q: And the relative viability (NCI-H661; first compound 1.265 µM)?
A: 0.34

Q: What about the relative viability (PC-14; first compound 0.04 µM) of the same molecule?
A: 0.599

Q: And the relative viability (PC-14; first compound 0.1265 µM)?
A: 0.638

Q: And the relative viability (PC-14; first compound 0.4 µM)?
A: 0.484

Q: And the relative viability (PC-14; first compound 1.265 µM)?
A: 0.508

Q: What about the relative viability (RERF-LC-KJ; first compound 0.04 µM) of the same molecule?
A: 0.531

Q: And the relative viability (RERF-LC-KJ; first compound 0.1265 µM)?
A: 0.422

Q: What about the relative viability (RERF-LC-KJ; first compound 0.4 µM) of the same molecule?
A: 0.407

Q: And the relative viability (RERF-LC-KJ; first compound 1.265 µM)?
A: 0.275
